Our source for the speed of sound, mass density and refractive index values is the NIST ThermoML archive (doi:10.1016/j.jct.2019.03.024).

Numbers after ± are expanded uncertainties.

The conditions of series [1]: 298.15 K, 86.5 kPa, Liquid.
Series [2] is described as follows: refractive index (Na D-line) (dimensionless). The following applies: 298.15 K; 86.5 kPa; Liquid; Standard Abbe refractometry.

For `CCCCCCCCn1cc[n+](C)c1.[Br-]` [1-methyl-3-octylimidazolium bromide], in series [1] (Frequency=3 MHz, Single path-length method), the speed of sound was 1561.8 ± 2.2 m/s. For the same molecule, the mass density in series [1] (Vibrating tube method) was 1172.98 ± 2.3 kg/m3. In addition, in series [2], the refractive index came out at 1.5217 ± 0.02.

In general, speed of sound refers to the propagation velocity of pressure waves in the medium. What is called mass density is mass per unit of volume. By refractive index is commonly meant a measure of how strongly the sample bends light.
